# Data published in article PMC9025560, “A Comparison of Evans Blue and 4-(p-Iodophenyl)butyryl Albumin Binding Moieties on an Integrin αvβ6 Binding Peptide” (Pharmaceutics, 2022).
# Like-named read-outs stand apart in the source and are kept apart here.
# Assay: Biodistribution in mice bearing BxPC-3 xenograft tumors
# Type: in vivo
# Details: female, athymic nu/nu-nude, mouse, in vivo, total radioactivity; for tissue uptake at 24 h: 24 h p.i.; for tissue uptake at 48 h: 48 h p.i.
# Description: All animal procedures conformed to the Animal Welfare Act and were approved by the University of California, Davis Institutional Animal Care and Use Committee. Female athymic nu/nu-nude mice (6–8 weeks old) were purchased from Charles River Laboratories (Wilmington, MA, USA) and provided food and water on an ad libitum basis. BxPC-3 xenografts were implanted according to previous methods. Briefly, BxPC-3 cells were evaluated by flow cytometry to confirm integrin αvβ6 expression levels, injected subcutaneously into the left flank [5 million in 100 μL of a 1:1 mixture of serum-free RPMI and GFR Matrigel (Corning, New York, NY, USA)], and allowed to grow for approximately 3 weeks until tumors reached a diameter of 0.5–1 cm.
# For biodistribution studies the [^64Cu]1–4 (3.7–5.55 MBq) in PBS (100 μL, pH 7.2) was injected intravenously (i.v.) via catheter into the tail vein. Following a conscious uptake period, the mice were anesthetized (5% isoflurane), euthanized, and dissected ([^64Cu]1 and [^64Cu]2, n = 3/radiolabeled peptide/time point; 4, 24, and 48 h p.i.; the 72 h time point was obtained from the imaging animals after the 72 h PET/CT scans; compounds [^64Cu]3 and [^64Cu]4, n = 2/radiolabeled compound at 4 h p.i.). Tissues were rapidly collected, weighed, and radioactivity measured with a γ-counter. Decay-corrected radioactivity concentrations are expressed as the percentage of injected dose per gram of tissue (% ID/g). Data are reported as mean ± standard deviation (SD) (Figure S20, S21 and S25).
# [1] = iv, i.v., read-out: Blood uptake
# [2] = iv, i.v., read-out: Bone uptake
# [3] = iv, i.v., read-out: Brain uptake
# [4] = iv, i.v., read-out: BxPC-3 Tumor uptake
# [5] = iv, i.v., read-out: Fecal Matter radioactivity
# [6] = iv, i.v., read-out: Gall Bladder uptake
# [7] = iv, i.v., read-out: Heart uptake
# [8] = iv, i.v., read-out: Kidneys uptake
# [9] = iv, i.v., read-out: Lg. Intestines uptake
# [10] = iv, i.v., read-out: Liver uptake
# [11] = iv, i.v., read-out: Lung uptake
# [12] = iv, i.v., read-out: Muscle uptake
# [13] = iv, i.v., read-out: Pancreas uptake
# [14] = iv, i.v., read-out: Skin uptake
# [15] = iv, i.v., read-out: Sm. Intestines uptake
# [16] = iv, i.v., read-out: Spleen uptake
# [17] = iv, i.v., read-out: Stomach uptake
# [18] = iv, i.v., read-out: Urine radioactivity
structure (smiles),measurement,setting,value
"CC(C)C[C@H](NC(=O)[C@H](CC(=O)O)NC(=O)CNC(=O)[C@H](CCCNC(=N)N)NC(=O)[C@H](CC(C)C)NC(=O)[C@H](CC(N)=O)NC(=O)[C@@H]1CCCN1C(=O)[C@@H](NC(=O)[C@H](C)NC(=O)[C@H](CC(N)=O)NC(=O)CCOCCOCCOCCOCCOCCOCCOCCOCCOCCOCCOCCOCCOCCOCCOCCOCCOCCOCCOCCOCCOCCOCCOCCOCCOCCOCCOCCOCCNC(=O)[C@H](CCCCNC(=O)[C@H](CC(=O)O)NC(=O)CCCNC(=O)CCCc1ccc(I)cc1)NC(=O)CN1CCN(CC(=O)O)CCN(CC(=O)O)CCN(CC(=O)O)CC1)C(C)C)C(=O)N[C@@H](CCC(N)=O)C(=O)N[C@H](C(=O)N[C@@H](CC(C)C)C(=O)N[C@@H](C)C(=O)N[C@@H](CCC(N)=O)C(=O)N[C@@H](CCCNC(=N)N)C(=O)N[C@H](C(=O)N[C@@H](C)C(=O)N[C@@H](CCCNC(=N)N)C(=O)N[C@H](C(=O)NCCOCCOCCOCCOCCOCCOCCOCCOCCOCCOCCOCCOCCOCCOCCOCCOCCOCCOCCOCCOCCOCCOCCOCCOCCOCCOCCOCCOCCC(N)=O)[C@@H](C)O)C(C)C)C(C)C [[^64Cu]2, [^64Cu]Cu DOTA-IP-αvβ6-BP, metal not drawn]",tissue uptake at 24 h,[1],0.2 ± 0.04 %ID/g
same,tissue uptake at 24 h,[2],0.28 ± 0.21 %ID/g
same,tissue uptake at 24 h,[3],0.08 ± 0.01 %ID/g
same,tissue uptake at 24 h,[4],4.41 ± 1.25 %ID/g
same,tissue uptake at 24 h,[5],4.58 ± 1.03 %ID/g
same,tissue uptake at 24 h,[6],5.05 ± 3.56 %ID/g
same,tissue uptake at 24 h,[7],1.61 ± 0.06 %ID/g
same,tissue uptake at 24 h,[8],21.9 ± 1.74 %ID/g
same,tissue uptake at 24 h,[9],5.58 ± 0.94 %ID/g
same,tissue uptake at 24 h,[10],1.62 ± 0.2 %ID/g
same,tissue uptake at 24 h,[11],1.69 ± 0.07 %ID/g
same,tissue uptake at 24 h,[12],0.78 ± 0.22 %ID/g
same,tissue uptake at 24 h,[13],0.78 ± 0.01 %ID/g
same,tissue uptake at 24 h,[14],1.48 ± 0.03 %ID/g
same,tissue uptake at 24 h,[15],4.58 ± 0.62 %ID/g
same,tissue uptake at 24 h,[16],0.31 ± 0.05 %ID/g
same,tissue uptake at 24 h,[17],11.1 ± 1.16 %ID/g
same,tissue uptake at 24 h,[18],1.7 ± 1.91 %ID/g
same,tissue uptake at 48 h,[1],0.2 ± 0.04 %ID/g
same,tissue uptake at 48 h,[2],0.24 ± 0.09 %ID/g
same,tissue uptake at 48 h,[3],0.09 ± 0.01 %ID/g
same,tissue uptake at 48 h,[4],4.09 ± 1.28 %ID/g
same,tissue uptake at 48 h,[5],2.67 ± 0.58 %ID/g
same,tissue uptake at 48 h,[6],2.83 ± 0.86 %ID/g
same,tissue uptake at 48 h,[7],1.43 ± 0.2 %ID/g
same,tissue uptake at 48 h,[8],11.8 ± 1.02 %ID/g
same,tissue uptake at 48 h,[9],3.95 ± 0.81 %ID/g
same,tissue uptake at 48 h,[10],1.71 ± 0.21 %ID/g
same,tissue uptake at 48 h,[11],1.33 ± 0.15 %ID/g
same,tissue uptake at 48 h,[12],0.63 ± 0.07 %ID/g
same,tissue uptake at 48 h,[13],0.64 ± 0.08 %ID/g
same,tissue uptake at 48 h,[14],1.22 ± 0.22 %ID/g
same,tissue uptake at 48 h,[15],2.28 ± 0.1 %ID/g
same,tissue uptake at 48 h,[16],0.35 ± 0.05 %ID/g
same,tissue uptake at 48 h,[17],6.4 ± 1.02 %ID/g
same,tissue uptake at 48 h,[18],3.24 ± 1.03 %ID/g
same,tissue uptake at 72 h,"iv, 72 h p.i., i.v., read-out: Blood uptake",0.17 ± 0.001 %ID/g
same,tissue uptake at 72 h,"iv, 72 h p.i., i.v., read-out: Bone uptake",0.26 ± 0.01 %ID/g
same,tissue uptake at 72 h,"iv, 72 h p.i., i.v., read-out: Brain uptake",0.1 ± 0.02 %ID/g
same,tissue uptake at 72 h,"iv, 72 h p.i., i.v., read-out: BxPC-3 Tumor uptake",4.91 ± 1.19 %ID/g
same,tissue uptake at 72 h,"iv, 72 h p.i., i.v., read-out: Fecal Matter radioactivity",2.29 ± 0.53 %ID/g
same,tissue uptake at 72 h,"iv, 72 h p.i., i.v., read-out: Gall Bladder uptake",3.21 ± 1.02 %ID/g
same,tissue uptake at 72 h,"iv, 72 h p.i., i.v., read-out: Heart uptake",1.05 ± 0.05 %ID/g
same,tissue uptake at 72 h,"iv, 72 h p.i., i.v., read-out: Kidneys uptake",11.5 ± 1.02 %ID/g
same,tissue uptake at 72 h,"iv, 72 h p.i., i.v., read-out: Lg. Intestines uptake",3 ± 0.37 %ID/g
same,tissue uptake at 72 h,"iv, 72 h p.i., i.v., read-out: Liver uptake",1.3 ± 0.13 %ID/g
same,tissue uptake at 72 h,"iv, 72 h p.i., i.v., read-out: Lung uptake",1.16 ± 0.22 %ID/g
same,tissue uptake at 72 h,"iv, 72 h p.i., i.v., read-out: Muscle uptake",0.76 ± 0.24 %ID/g
same,tissue uptake at 72 h,"iv, 72 h p.i., i.v., read-out: Pancreas uptake",0.57 ± 0.06 %ID/g
same,tissue uptake at 72 h,"iv, 72 h p.i., i.v., read-out: Skin uptake",0.92 ± 0.14 %ID/g
same,tissue uptake at 72 h,"iv, 72 h p.i., i.v., read-out: Sm. Intestines uptake",1.24 ± 0.11 %ID/g
same,tissue uptake at 72 h,"iv, 72 h p.i., i.v., read-out: Spleen uptake",0.38 ± 0.14 %ID/g
same,tissue uptake at 72 h,"iv, 72 h p.i., i.v., read-out: Stomach uptake",3.14 ± 0.62 %ID/g
same,tissue uptake at 72 h,"iv, 72 h p.i., i.v., read-out: Urine radioactivity",1.46 ± 1.17 %ID/g
same,tissue uptake at 72 h,"72 h, read-out: GI uptake",< 3.2 %ID/g
same,tissue uptake,"throughout 4–72 h, read-out: Liver uptake throughout",< 3 %ID/g
